Measured values: patent publication US7045343B2, “Sterilization indicator test packs” (3M Innovative Properties Company, priority 1998, dated 2006)

System: enzyme associated with Bacillus stearothermophilus spores
Assay: Rapid enzyme fluorescence readout of dual rapid readout indicators after prevacuum steam sterilization
Assay type: biochemical
Conditions: 4-pulse prevacuum steam 121° C.
Summary of the method: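 Bacillus stearothermophilus ATCC 7953 spores were coated with a sterilant-resistant chemical solution and pipetted onto paper strips at about 1×10^6 spores per strip. Each strip sat in a dual rapid readout indicator beside a crushable inner container of nutrient medium holding 4-methylumbelliferyl-alpha-D-glucoside at pH 7.6. Indicators went through a 4-pulse prevacuum steam cycle at 121° C, were activated, incubated at 60° C, and read for fluorescence on a 3M ATTEST Model 190 Rapid Autoreader.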

[1] = Example 4, 50 mg/ml coating, 7–18 min
[2] = Example 4, 100 mg/ml coating, 7–18 min
[3] = Example 1, 10 mg/ml coating, 7–13 min
[4] = Example 1, 20 mg/ml coating, 7–13 min
[5] = Example 1, 40 mg/ml coating, 7–13 min
[6] = Example 1, 80 mg/ml coating, 7–13 min
[7] = Example 1, 100 mg/ml coating, 7–13 min
[8] = Example 3, 100 mg/ml coating, 7–15 min

## Decaglyceryl Decaoleate
[1]
  FLUORESCENCE - PERCENT POSITIVE 1 HR: 0%
  FLUORESCENCE - PERCENT POSITIVE 2 HR: 19.4%
  FLUORESCENCE - PERCENT POSITIVE 3 HR: 29.0%
  FLUORESCENCE - PERCENT POSITIVE 4 HR: 41.9%
[2]
  FLUORESCENCE - PERCENT POSITIVE 1 HR: 16.7%
  FLUORESCENCE - PERCENT POSITIVE 2 HR: 20%
  FLUORESCENCE - PERCENT POSITIVE 3 HR: 30%
  FLUORESCENCE - PERCENT POSITIVE 4 HR: 50%

## Decaglyceryl Monostearate
  accuracy of sterilization indicators compared to indicators made with untreated spores: improved
Listed as decaglycerol monostearate
  accuracy of sterilization indicators compared to indicators made with untreated spores: improved accuracy
[3]
  FLUORESCENCE - PERCENT POSITIVE 1 HR: 0%
  FLUORESCENCE - PERCENT POSITIVE 2 HR: 41.0%
  FLUORESCENCE - PERCENT POSITIVE 3 HR: 74.4%
  FLUORESCENCE - PERCENT POSITIVE 4 HR: 82.1%
  FLUORESCENCE - PERCENT POSITIVE 5 HR: 87.2%
  FLUORESCENCE - PERCENT POSITIVE 6 HR: 89.7%
[4]
  FLUORESCENCE - PERCENT POSITIVE 1 HR: 0%
  FLUORESCENCE - PERCENT POSITIVE 2 HR: 17.6%
  FLUORESCENCE - PERCENT POSITIVE 3 HR: 73.5%
  FLUORESCENCE - PERCENT POSITIVE 4 HR: 91.2%
  FLUORESCENCE - PERCENT POSITIVE 5 HR: 100%
  FLUORESCENCE - PERCENT POSITIVE 6 HR: 100%
[5]
  FLUORESCENCE - PERCENT POSITIVE 1 HR: 0%
  FLUORESCENCE - PERCENT POSITIVE 2 HR: 69.5%
  FLUORESCENCE - PERCENT POSITIVE 3 HR: 91.5%
  FLUORESCENCE - PERCENT POSITIVE 4 HR: 100%
  FLUORESCENCE - PERCENT POSITIVE 5 HR: 100%
  FLUORESCENCE - PERCENT POSITIVE 6 HR: 100%
[6]
  FLUORESCENCE - PERCENT POSITIVE 1 HR: 0%
  FLUORESCENCE - PERCENT POSITIVE 2 HR: 85.5%
  FLUORESCENCE - PERCENT POSITIVE 3 HR: 96.4%
  FLUORESCENCE - PERCENT POSITIVE 4 HR: 100%
  FLUORESCENCE - PERCENT POSITIVE 5 HR: 100%
  FLUORESCENCE - PERCENT POSITIVE 6 HR: 100%
[7]
  FLUORESCENCE - PERCENT POSITIVE 1 HR: 8.8%
  FLUORESCENCE - PERCENT POSITIVE 2 HR: 85.3%
  FLUORESCENCE - PERCENT POSITIVE 3 HR: 100%
  FLUORESCENCE - PERCENT POSITIVE 4 HR: 100%
  FLUORESCENCE - PERCENT POSITIVE 5 HR: 100%
  FLUORESCENCE - PERCENT POSITIVE 6 HR: 100%
[8]
  FLUORESCENCE - PERCENT POSITIVE 1 HR: 0%
  FLUORESCENCE - PERCENT POSITIVE 2 HR: 100.0%
  FLUORESCENCE - PERCENT POSITIVE 3 HR: 100.0%
  FLUORESCENCE - PERCENT POSITIVE 4 HR: 100.0%
[1]
  FLUORESCENCE - PERCENT POSITIVE 1 HR: 13.8%
  FLUORESCENCE - PERCENT POSITIVE 2 HR: 86.2%
  FLUORESCENCE - PERCENT POSITIVE 3 HR: 100.0%
  FLUORESCENCE - PERCENT POSITIVE 4 HR: 100.0%
